Reference: ChEMBL document CHEMBL4837192, “The Bisindole Alkaloids Angustilongines M and A from Alstonia penangiana Induce Mitochondrial Apoptosis and G0/G1 Cell Cycle Arrest in HT-29 Cells through Promotion of Tubulin Polymerization” (J Nat Prod, 2021)
Calls of active or inactive are those of the source. The calls are words filed in the database; no cut-off is given here.

How the values were obtained:
[1] = test system: HT-29; test: Induction of apoptosis in human HT-29 cells assessed as dead cells at 2.7 uM measured after 72 hrs by FITC-annexin V/propidium iodide- double staining based flow cytometry analysis (Rvb= 0.4%); type: functional
[2] = test system: HT-29; test: Induction of cell cycle arrest in human HT-29 cells assessed as accumulation of cells at G1 phase at 2.7 uM measured after 48 hrs by propidium iodide staining based flow cytometry analysis (Rvb= 55.39%); type: functional
[3] = test system: HT-29; test: Cytotoxicity against human HT-29 cells assessed as cell growth inhibition measured after 48 hrs by MTT assay; type: functional, cell-based; details: HT-29, 48 h
[4] = test system: HT-29; test: Antiproliferative activity in human HT-29 cells cultured as 3D spheroids assessed as reduction in 3D structure of spheroid morphology at IC50 measured after 48 hrs; type: functional, cell-based
[5] = test system: HT-29; test: Induction of mitochondrial membrane potential loss in human HT-29 cells assessed as healthy cells at 2.7 uM measured after 72 hrs by JC-1 staining based flow cytometry analysis (Rvb= 91.4%); type: functional
[6] = test system: HT-29; test: Induction of cell cycle arrest in human HT-29 cells assessed as accumulation of cells at S phase at 2.7 uM measured after 72 hrs by propidium iodide staining based flow cytometry analysis (Rvb= 35.52%); type: functional
[7] = test system: HT-29; test: Induction of apoptosis in human HT-29 cells assessed as late apoptotic cells at 2.7 uM measured after 48 hrs by FITC-annexin V/propidium iodide- double staining based flow cytometry analysis (Rvb= 3.0%); type: functional
[8] = Selectivity index, ratio of IC50 for human CCD-18Co cells to IC50 for human HT-29 cells assessed as cell growth inhibition measured after 48 hrs by MTT assay
[9] = test system: HT-29; test: Induction of cell cycle arrest in human HT-29 cells assessed as accumulation of cells at S phase at 2.7 uM measured after 48 hrs by propidium iodide staining based flow cytometry analysis (Rvb= 35.52%); type: functional
[10] = test system: HT-29; test: Induction of apoptosis in human HT-29 cells assessed as late apoptotic cells at 2.7 uM measured after 72 hrs by FITC-annexin V/propidium iodide- double staining based flow cytometry analysis (Rvb= 3.0%); type: functional
[11] = test system: HT-29; test: Induction of apoptosis in human HT-29 cells assessed as viable cells at 2.7 uM measured after 24 hrs by FITC-annexin V/propidium iodide- double staining based flow cytometry analysis (Rvb= 83.8%); type: functional; details: read-out: Activity
[12] = test system: CCD-18Co; test: Cytotoxicity against human CCD-18Co cells assessed as cell growth inhibition measured after 48 hrs by MTT assay; type: cell-based
[13] = test system: HT-29; test: Induction of mitochondrial membrane potential loss in human HT-29 cells assessed as healthy cells at 2.7 uM measured after 48 hrs by JC-1 staining based flow cytometry analysis (Rvb= 91.4%); type: functional
[14] = test system: HT-29; test: Anticlonogenic activity against human HT-29 cells assessed as inhibition of colony formation measured after 6 days by methylene blue staining based assay; type: functional, cell-based; details: dose 1.35-2.7 µM, time 6.0 day
[15] = test system: HT-29; test: Induction of cell cycle arrest in human HT-29 cells assessed as accumulation of cells at G1 phase at 2.7 uM measured after 24 hrs by propidium iodide staining based flow cytometry analysis (Rvb= 55.39%); type: functional
[16] = test system: HT-29; test: Induction of mitochondrial membrane potential loss in human HT-29 cells assessed as healthy cells at 2.7 uM measured after 24 hrs by JC-1 staining based flow cytometry analysis (Rvb= 91.4%); type: functional
[17] = test system: HT-29; test: Induction of apoptosis in human HT-29 cells assessed as late apoptotic cells at 2.7 uM measured after 24 hrs by FITC-annexin V/propidium iodide- double staining based flow cytometry analysis (Rvb= 3.0%); type: functional
[18] = test system: HT-29; test: Induction of cell cycle arrest in human HT-29 cells assessed as accumulation of cells at S phase at 2.7 uM measured after 24 hrs by propidium iodide staining based flow cytometry analysis (Rvb= 35.52%); type: functional
[19] = test system: HT-29; test: Induction of apoptosis in human HT-29 cells assessed as viable cells at 2.7 uM measured after 48 hrs by FITC-annexin V/propidium iodide- double staining based flow cytometry analysis (Rvb= 83.8%); type: functional; details: read-out: Activity
[20] = test system: HT-29; test: Induction of apoptosis in human HT-29 cells assessed as dead cells at 2.7 uM measured after 24 hrs by FITC-annexin V/propidium iodide- double staining based flow cytometry analysis (Rvb= 0.4%); type: functional
[21] = test system: HT-29; test: Antiproliferative activity against human HT-29 cells cultured as 3D spheroids assessed as inhibition of spheroid formation measured after 48 hrs by MTT assay; type: functional, cell-based; details: HT-29, 48 h
[22] = test system: HT-29; test: Induction of apoptosis in human HT-29 cells assessed as viable cells at 2.7 uM measured after 72 hrs by FITC-annexin V/propidium iodide- double staining based flow cytometry analysis (Rvb= 83.8%); type: functional; details: read-out: Activity
[23] = test system: HT-29; test: Induction of cell cycle arrest in human HT-29 cells assessed as accumulation of cells at G1 phase at 2.7 uM measured after 72 hrs by propidium iodide staining based flow cytometry analysis (Rvb= 55.39%); type: functional
[24] = test system: HT-29; test: Induction of mitochondrial membrane potential loss in human HT-29 cells assessed as apoptotic cells at 2.7 uM measured after 48 hrs by JC-1 staining based flow cytometry analysis (Rvb= 8.6%); type: functional
[25] = molecular target: Tubulin (Homo sapiens) (UniProt P68371+Q9H4B7+P0DPH7+P68366+Q13509+Q71U36+P04350+Q3ZCM7+P07437+P68363+Q9BQE3+Q6PEY2+Q13885+Q9BVA1+Q9BUF5); test: Induction of tubulin polymerization in human HT-29 cells assessed as stabilization of microtubules at 10 uM by spectrophotometric analysis; type: cell-based
[26] = test system: HT-29; test: Induction of apoptosis in human HT-29 cells assessed as activation of caspase-3 at 2.7 uM measured after 24 hrs by flow cytometry analysis (Rvb= 2.2%); type: functional
[27] = test system: HT-29; test: Induction of apoptosis in human HT-29 cells assessed as early apoptotic cells at 2.7 uM measured after 72 hrs by FITC-annexin V/propidium iodide- double staining based flow cytometry analysis (Rvb= 12.8%); type: functional
[28] = test system: HT-29; test: Antiproliferative activity in human HT-29 cells cultured as 3D spheroids assessed as gradual disaggregation of peripheral cells at IC50 measured after 48 hrs; type: functional, cell-based
[29] = test system: HT-29; test: Induction of apoptosis in human HT-29 cells assessed as activation of caspase-3 at 2.7 uM measured after 72 hrs by flow cytometry analysis (Rvb= 2.2%); type: functional
[30] = test system: HT-29; test: Induction of apoptosis in human HT-29 cells assessed as early apoptotic cells at 2.7 uM measured after 24 hrs by FITC-annexin V/propidium iodide- double staining based flow cytometry analysis (Rvb= 12.8%); type: functional
[31] = test system: HT-29; test: Induction of mitochondrial membrane potential loss in human HT-29 cells assessed as apoptotic cells at 2.7 uM measured after 24 hrs by JC-1 staining based flow cytometry analysis (Rvb= 8.6%); type: functional
[32] = test system: HT-29; test: Induction of cell cycle arrest in human HT-29 cells assessed as accumulation of cells at G2 phase at 2.7 uM measured after 48 hrs by propidium iodide staining based flow cytometry analysis (Rvb= 9.09%); type: functional
[33] = test system: HT-29; test: Induction of apoptosis in human HT-29 cells assessed as early apoptotic cells at 2.7 uM measured after 48 hrs by FITC-annexin V/propidium iodide- double staining based flow cytometry analysis (Rvb= 12.8%); type: functional
[34] = test system: HT-29; test: Induction of cell cycle arrest in human HT-29 cells assessed as accumulation of cells at G2 phase at 2.7 uM measured after 24 hrs by propidium iodide staining based flow cytometry analysis (Rvb= 9.09%); type: functional
[35] = test system: HT-29; test: Induction of cell cycle arrest in human HT-29 cells assessed as accumulation of cells at G2 phase at 2.7 uM measured after 72 hrs by propidium iodide staining based flow cytometry analysis (Rvb= 9.09%); type: functional
[36] = test system: HT-29; test: Induction of apoptosis in human HT-29 cells assessed as dead cells at 2.7 uM measured after 48 hrs by FITC-annexin V/propidium iodide- double staining based flow cytometry analysis (Rvb= 0.4%); type: functional
[37] = test system: HT-29; test: Induction of mitochondrial membrane potential loss in human HT-29 cells assessed as apoptotic cells at 2.7 uM measured after 72 hrs by JC-1 staining based flow cytometry analysis (Rvb= 8.6%); type: functional
[38] = test system: HT-29; test: Induction of apoptosis in human HT-29 cells assessed as activation of caspase-3 at 2.7 uM measured after 48 hrs by flow cytometry analysis (Rvb= 2.2%); type: functional
[39] = test system: KB; test: Cytotoxicity against human vincristine-sensitive KB cells assessed as cell growth inhibition measured after 72 hrs by MTT assay; type: functional, cell-based
[40] = test system: KB; test: Cytotoxicity against human vincristine-resistant KB cells assessed as cell growth inhibition measured after 72 hrs by MTT assay; type: functional, cell-based
[41] = test system: MDA-MB-231; test: Cytotoxicity against human MDA-MB-231 cells assessed as cell growth inhibition measured after 72 hrs by MTT assay; type: functional, cell-based; details: MDA-MB-231, 72 h
[42] = test system: HT-29; test: Cytotoxicity against human HT-29 cells assessed as cell growth inhibition measured after 72 hrs by MTT assay; type: functional, cell-based; details: HT-29, 72 h
[43] = test system: PC-3; test: Cytotoxicity against human PC-3 cells assessed as cell growth inhibition measured after 72 hrs by MTT assay; type: functional, cell-based; details: PC-3, 72 h
[44] = test system: CCD-18Co; test: Cytotoxicity against human CCD-18Co cells assessed as cell growth inhibition measured after 72 hrs by MTT assay; type: cell-based
[45] = test system: HCT-116; test: Cytotoxicity against human HCT-116 cells assessed as cell growth inhibition measured after 72 hrs by MTT assay; type: functional, cell-based; details: HCT-116, 72 h
[46] = test system: A549; test: Cytotoxicity against human A549 cells assessed as cell growth inhibition measured after 72 hrs by MTT assay; type: functional, cell-based; details: A549, 72 h
[47] = test system: MCF7; test: Cytotoxicity against human MCF7 cells assessed as cell growth inhibition measured after 72 hrs by MTT assay; type: functional, cell-based; details: MCF7, 72 h

C/C=C1/CN2CC[C@]34c5cc([C@@H](C)[C@H]6[C@@H]7C[C@H]8c9c(c%10ccccc%10n9C)C[C@@H]([C@@H]7CO[C@@H]6O)N8C)c(OC)cc5N(C)[C@H]3[C@@H]2C[C@@H]1C4C(=O)OC (stereo partly drawn)
Activity [1]: 0.2%
Activity [2]: 67.84%
IC50 [3]: 2.5 µM
Activity [4]: Active
Activity [5]: 35.8%
Activity [6]: 13.77%
Activity [7]: 9.9%
Ratio IC50 [8]: 4.88
Activity [9]: 23.15%
Activity [10]: 25.6%
viability at 2.7 µM [11]: 76.2%
IC50 [12]: 12.2 µM
Activity [13]: 68.8%
Activity [14]: Dose-Dependent Effect
Activity [15]: 56.04%
Activity [16]: 88.7%
Activity [17]: 9.8%
Activity [18]: 34.12%
viability at 2.7 µM [19]: 61.8%
Activity [20]: 0.2%
IC50 [21]: 10 µM
viability at 2.7 µM [22]: 25.2%
Activity [23]: 76.79%
Activity [24]: 31.2%
Activity [25]: Active
Activity [26]: 1.7%
Activity [27]: 49.1%
Activity [28]: Active
Activity [29]: 50.2%
Activity [30]: 13.8%
Activity [31]: 11.3%
Activity [32]: 9.01%
Activity [33]: 28.2%
Activity [34]: 9.84%
Activity [35]: 9.44%
Activity [36]: 0.2%
Activity [37]: 64.2%
Activity [38]: 8.2%

O=c1[nH]cc(F)c(=O)[nH]1 [FLUOROURACIL]
IC50 [21]: 25.9 µM

CC[C@]1(O)C[C@H]2CN(CCc3c([nH]c4ccccc34)[C@@](C(=O)OC)(c3cc4c(cc3OC)N(C=O)[C@H]3[C@@](O)(C(=O)OC)[C@H](OC(C)=O)[C@]5(CC)C=CCN6CC[C@]43[C@@H]65)C2)C1 [VINCRISTINE]
IC50 [39]: 0.0008 µM
IC50 [40]: 0.8 µM

C/C=C1/CN2[C@H]3C[C@@H]1[C@@H](CO)[C@@H]2Cc1c3n(C)c2ccc3c(c12)[C@H](C)[C@@H]1[C@@H](OC[C@@H]2[C@H]1C[C@H]1c4c(c5ccccc5n4C)C[C@@H]2N1C)O3
Activity [1]: 0.4%
Activity [2]: 66.11%
IC50 [3]: 2.7 µM
Activity [4]: Active
Activity [5]: 36.6%
Activity [6]: 24.39%
Activity [7]: 7.1%
Ratio IC50 [8]: 5.32
IC50 [41]: 5.9 µM
Activity [9]: 21.76%
Activity [10]: 41.6%
IC50 [42]: 0.2 µM
viability at 2.7 µM [11]: 77.6%
IC50 [12]: 14.1 µM
Activity [13]: 63.9%
IC50 [39]: 5 µM
Activity [14]: Dose-Dependent Effect
Activity [15]: 65.56%
Activity [16]: 90.9%
Activity [17]: 12.8%
IC50 [43]: 6.1 µM
IC50 [44]: > 10 µM
IC50 [45]: 4.7 µM
IC50 [40]: 7.6 µM
Activity [18]: 19.88%
viability at 2.7 µM [19]: 60.8%
Activity [20]: 0.9%
IC50 [21]: 3.8 µM
viability at 2.7 µM [22]: 17.7%
Activity [23]: 67.94%
Activity [24]: 36.1%
Activity [25]: Active
Activity [26]: 1.9%
Activity [27]: 40.3%
Activity [28]: Active
IC50 [46]: 2.1 µM
Activity [29]: 67.8%
Activity [30]: 8.7%
Activity [31]: 9.1%
Activity [32]: 12.12%
Activity [33]: 32%
Activity [34]: 14.56%
IC50 [47]: > 10 µM
Activity [35]: 7.67%
Activity [36]: 0.1%
Activity [37]: 63.4%
Activity [38]: 26%
